Data set [1] relates to carbonic anhydrase. The experiment in a line: Effect of salt on carbonic anhydrase activity, 50 mM bicine/cresol red assay. Type of data set: biochemical. The note with it: form of the enzyme that precipitates in the absence of salt. As for the experimental part:
The measurement of CO2 absorption enhancement by carbonic anhydrase was performed as described in Example 1 except the assay reagent contains 50 mM bicine at pH 8.65+/−0.05. This embodiment of the assay reagent delays the assay response relative to Example 1. Such a delay expands the “assay window” (from 5.1 to 6.7 seconds, inclusive, in Example 1; to 6.8 to 9.9 seconds, inclusive), and permits analysis of more data points.
When required, such as for stability of certain forms of carbonic anhydrase, additional compounds, such as salts, for example sodium chloride, can be added to the assay reagent. This embodiment of the assay reagent leads to an improved measure of carbonic anhydrase activity for forms of the enzyme which, in the absence of salt, may aggregate, precipitate, or otherwise change their form and alter the result in the assay measurement of CO2 absorption enhancement. The required concentration of salt is expected to be enzyme dependent, and the assay can be used to determine the optimal salt concentration required for optimal enzyme activity determination.
FIG. 3 presents the effect of salt concentration on the determination of carbonic anhydrase activity for a form of the enzyme that precipitates in the absence of salt.

For data set [2] the following is noted: cited from earlier work.
Data set [3] has as its system carbonic anhydrase. The experiment in a line: Carbonic anhydrase activity before and after zinc addition, bicine/cresol red CO2 hydration assay. The class given is biochemical, microbial origin. Particulars: for fold improvement: activity with 3.5 mM zinc salt versus assay sample without zinc; for Activity (U/mL): zinc deficient enzyme sample incubated with 3.5 mM zinc salt overnight at room temperature. As for the experimental part: A solution containing 25 mM bicine and 123 micromolar (0.05 g/L) cresol-red (pH 8.3) is prepared as the assay reagent. The assay substrate is prepared at room temperature by bubbling CO2 gas into either a 125 mL Erlenmeyer flask containing 100 mL deionized H2O (dH2O) or a 50 ml plastic conical tube containing 30 mL dH2O. Bubbling proceeds for at least 10 minutes to yield a saturated CO2(aq) solution ([CO2]˜30 mM (Kernohan, J. C. 1965. Biochim. Biophys. Acta 96: 304). Carbonic anhydrase test samples are diluted for the assay using the assay reagent as diluent. A set of assay samples, made by 5- or 6-×0.7-fold serial dilutions of the enzyme test sample, are loaded onto a 96-well microtiter plate. Eight replicate wells each containing 100 microliters of each dilution are plated. Corresponding blank wells are loaded on the same plate in alternating columns with the assay sample wells. Blank wells contain either assay reagent alone or a 5- or 6-×0.7-fold serial dilution set of a modified enzyme test sample, where the modification involves removing or inactivating the active enzyme of the test sample.
The plate is inserted into a temperature controlled plate reader equipped with a liquid dispenser unit with the inject head immersed in the aqueous CO2 substrate solution. Initial absorbance of a single well is collected, followed by injection of 100 microliters of aqueous CO2 substrate into a single well and kinetic absorbance reads are collected at fixed time intervals (e.g., every 0.5 seconds) for that well such that the rate of absorbance change can be measured and used to indicate the rate of CO2 hydration. After approximately 5-10 seconds the reaction is no longer monitored and the process is repeated for all subsequent wells. Data automatically collected on the instrument is saved or exported in Microsoft Excel file format and copy/pasted into the Microsoft Excel automated data processing template. The data collected for each well is automatically checked for a linear slope (change in absorbance with change in time) within a selected “assay window” indicating the enzyme in that well was saturated with substrate during the assay window. The assay window is a sub-set of data points collected between selected time points for each well. The assay window for all wells in this example are the same. The slope of the data collected from an individual well assay window is called the “assay slope.” Wells passing the “linearity test” are averaged for a particular dilution to determine the “average assay slope” for that particular dilution. Next, a T-test between blank and assay sample replicates determines the probability that the differences between the two data sets could arise by chance, improving data quality by ensuring that data from an excessively diluted assay sample are not included in calculations of enzyme activity. If at least 3 dilution sets pass the T-test (T-test value <0.05), and at least 4 out of 8 replicate wells for those dilutions pass the “linearity test,” the average assay slope (change in absorbance per unit time) for each accepted dilution is plotted versus the amount of enzyme present in that dilution. […]
Carbonic anhydrase activity improvement was evaluated by measuring enzyme activity before and after zinc addition according to the method of Example 1. […]

The conditions of data set [4]: compared to other indicators with similar pKas, such as phenol red; cited from earlier work.

The term pKa denotes the negative logarithm of the acid dissociation constant.

Take `[Cl-].[Na+]` [NaCl, sodium chloride]: the “effect of salt addition on activity of a carbonic anhydrase test sample” value with carbonic anhydrase [1] is on record as “improve the activity”.
For `NC(CO)(CO)CO` [Tris], the pKa in data set [2] is given as 8.0.
`CCC1(CC)C(=O)NC(=O)NC1=O` [Veronal]: the pKa in data set [2] was 8.0.
With `[Cl-].[Cl-].[Zn+2]` [ZnCl2], in the data set with carbonic anhydrase [3], the fold improvement is 9 (ZnCl2) fold and the “Activity (U/mL)” value is on record as 5800 (ZnCl2) U/mL.
On to `O.O.O.O.O.O.O.O=S(=O)([O-])[O-].[Zn+2]` [ZnSO4 × 7H2O, ZnSO4×7 H2O], for which, in the data set with carbonic anhydrase [3], the fold improvement was 10 (ZnSO4 × 7H2O) fold and the “Activity (U/mL)” value is listed as 6400 (ZnSO4 × 7H2O) U/mL.
With `Cc1cc(C2(c3ccc(O)c(C)c3)OS(=O)(=O)c3ccccc32)ccc1O` [cresol red, o-Cresolsulfonephthalein], the pKa in data set [2] was 8.32. Moreover, the water solubility entry in data set [4] is “relatively high water solubility”.
As for `[Zn]` [zinc], the fold improvement result with carbonic anhydrase [3] is “around 10 fold”.
